This is an account of results in patent publication US4008323A, “Method of reducing cholesterol using certain aromatic keto acids” (Pierre Fabre S.A., priority 1974, dated 1977).

In one data set the test system is carrageenin edema. The experiment in a line: Carrageenin edema test in rats (antiinflammatory). The class given is in vivo. The following applies: for % var. / action (variation of paw volume increase vs controls) / change in vivo at 75 mg/kg: 75 mg/kg oral; for change in vivo at 75 mg/kg / change in vivo at 200 mg/kg / change in vivo at 300 mg/kg: Rattus norvegicus; for change in vivo at 200 mg/kg: 200 mg/kg oral; for change in vivo at 300 mg/kg: 300 mg/kg oral. On the procedure:
The antiinflammatory properties were shown by the carrageenin edema test in rats, the products having been administered orally 1 hour before the intrapodal injection of 0.05 ml of a 2% suspension of carrageenin; the volume of the rat's paw was measured by plethysmoscopy 3, 4 and 6 hours afterwards.
The experiment concerned for each lot […]; one lot of animals receiving only the vehicle (2 ml/100 g of Tween + water) which served for the administration of the products, constituted the control lot. The following table sets forth the results obtained: […]
On the technique in general: Carrageenan injected into the paw causes an acute inflammation.

In data set [1] the test system is writhings induced by phenylbenzoquinone. The experiment in a line: Writhing test, phenylbenzoquinone (analgetic). It is filed as in vivo, mice. The conditions noted are these: t + 35 to t + 40 min. On the procedure:
The analgetic properties of certain compounds were shown in mice by the "writhing test" method, that is to say with reference to the writhings induced by phenylbenzoquinone. The administration of the product is effected orally at time t; it is followed by the intraperitoneal injection of 0.2% phenylbenzoquinone at t + 30 min. The determination of the writhings is effected from t + 35 min. to t + 40 min. One lot of animals receiving only the vehicle (5% Tween 80 in 0.9% NaCl) serves as control.
(In general: In writhing tests, fewer writhes than in controls are read as antinociception.)

The nature of data set [2]: Acute toxicity in mice, oral LD50 (method of Miller & Tainter). The following applies: mouse, in vivo, mortality determined 48 hours after administration. On the procedure:
The chemical compounds previously described were submitted to toxicity tests. It was determined in mice by oral administration and was calculated in accordance with the method of MILLER & TAINTER. It is generally low and greater than 1000 mg/kg.

A short description of a further data set: Solubility properties. The class given is physicochemical.
A further data set has as its system total blood cholesterol. As to the kind of experiment: Total blood cholesterol in rats on a normal diet (hypocholesterolemizing). The class given is in vivo. The conditions noted are these: 300 mg/kg oral, 4 consecutive days; 5th day, fasted 16 hours. On the procedure: One lot of rats served as control.
The sampling was effected on the 5th day after 16 hours fasting, by cardiac puncture and the total blood cholesterol determination was effected by the Liebermann-Burchardt colorimetric method.

The mark [3] stands for this setting: 3 hrs, read-out: % increase in volume of the paw, mean (m).
[4] abbreviates: 4 hrs, read-out: % increase in volume of the paw, mean (m).
Where [5] appears, read: 6 hrs, read-out: % increase in volume of the paw, mean (m).
The mark [6] stands for this setting: read-out: % mean variation of the volume of the paw at 3, 4 and 6 hrs.
The mark [7] stands for this setting: + 3 hrs, read-out: % increase in volume of the paw, mean (m).
Setting [8] is: + 3 hrs, read-out: Action (variation of paw volume increase vs controls).
Setting [9] is: + 4 hrs, read-out: % increase in volume of the paw, mean (m).
[10] abbreviates: + 4 hrs, read-out: Action (variation of paw volume increase vs controls).
Where [11] appears, read: + 6 hrs, read-out: % increase in volume of the paw, mean (m).
The mark [12] stands for this setting: + 6 hrs, read-out: Action (variation of paw volume increase vs controls).

The structures appear in SMILES notation. Where two headings read alike, the source gives them in different places. Some results are limits rather than exact numbers.

With `C=C(CC(=O)c1ccc(-c2ccccc2)cc1)C(=O)O` [F 1377, 2-methylene 4-oxo 4-(paraphenylphenyl) butyric acid], the “% var. / action (variation of paw volume increase vs controls)” value is -37% in the data set on carrageenin edema (3 hrs), -37% with carrageenin edema (4 hrs) and -18% in the data set with carrageenin edema (6 hrs). Besides, the change in vivo at 75 mg/kg in the data set on carrageenin edema (setting [3]) was 28.8%; in the data set on carrageenin edema (setting [4]) it was 30.5%; with carrageenin edema (setting [5]) it was 37.2%; in the data set with carrageenin edema (setting [6]) it was -30%. In addition, the change in vivo at 200 mg/kg is 27.4% in the data set with carrageenin edema (setting [7]); -46% in the data set with carrageenin edema (setting [8]); 28% in the data set on carrageenin edema (setting [9]); -43% in the data set on carrageenin edema (setting [10]); 28.4% in the data set with carrageenin edema (setting [11]); -32% with carrageenin edema (setting [12]). Moreover, the change in vivo at 200 mg/kg with carrageenin edema (setting [6]) is -40%. Also, the “% Decrease (of writhings)” value in data set [1] (300 mg/kg oral) is given as 68,6%. In data set [1] (300 mg/kg oral), the “Mean No. of Writhings” value is 8,00. In data set [2], this compound yielded an LD50 at 48 h above 2000 mg/kg. Further, in “Solubility properties”, the “Solubility in N-methyl pyrrolidone” value amounted to 15%. The “Solubility in dimethyl sulfoxide” value in “Solubility properties” (dimethyl sulfoxide) amounted to 10%. For the same compound, the Solubility in ether entry in “Solubility properties” (in words) was “insoluble”. For the same compound, the “Solubility in propylene glycol (in words)” value in “Solubility properties” (propylene glycol, in words) is recorded as “insoluble”. Further, the “Solubility in water in the form of sodium salt (in words)” value in the data set “Solubility properties” (sodium salt, water, in words) is reported as “insoluble”. Further, the Solubility in water entry in “Solubility properties” (water, in words) is given as “insoluble”.
`CC(=CC(=O)c1ccc(-c2ccccc2Cl)cc1)C(=O)O` [F 1439, 2-methyl 4-oxo 4-(4'-O-chlorophenylphenyl) 2-butenoic acid]: the “% var. / action (variation of paw volume increase vs controls)” value in the data set with carrageenin edema (3 hrs) was -36%; with carrageenin edema (4 hrs), -33%; in the data set with carrageenin edema (6 hrs) it was -28%. The change in vivo at 75 mg/kg with carrageenin edema (setting [3]) is 38%; in the data set with carrageenin edema (setting [4]), 40%; in the data set on carrageenin edema (setting [5]), 40%; in the data set with carrageenin edema (setting [6]), -32%. Moreover, the “Total blood cholesterol, M” value in the data set with total blood cholesterol is 0,67. This compound also yielded an LD50 at 48 h in data set [2] of 2370 mg/kg. Also, the “Solubility in N-methyl pyrrolidone” value in the data set “Solubility properties” is 25%. Besides, in the data set “Solubility properties” (chloroform, in words), the “Solubility in chloroform (in words)” value was “Soluble”. The “Solubility in NN-dimethyl acetamide” value in the data set “Solubility properties” is reported as 20%. The Solubility in ether entry in the data set “Solubility properties” (in words) was “Soluble”. Moreover, the Solubility in water entry in “Solubility properties” (water, in words) is on record as “insoluble”.
As to `C=C(CC(=O)c1ccc(F)cc1)C(=O)O` [F 1376, 2-methylene 4-oxo 4-fluorophenyl butyric acid], the change in vivo at 300 mg/kg with carrageenin edema (setting [7]) was 50.8%; in the data set on carrageenin edema (setting [8]) it was -17%; with carrageenin edema (setting [9]) it was 51.5%; with carrageenin edema (setting [10]) it was -15%; in the data set with carrageenin edema (setting [11]), 54.8%; in the data set with carrageenin edema (setting [12]), -4%. In addition, the change in vivo at 300 mg/kg with carrageenin edema (setting [6]) was -12%. Besides, the “Total blood cholesterol, M” value with total blood cholesterol is given as 0,66. Besides, in data set [2], the LD50 at 48 h was found to be 1400 mg/kg. The “Solubility in ethyl alcohol” value in the data set “Solubility properties” (ethyl alcohol / ethanol / alcohol) is on record as 20%. Moreover, in the data set “Solubility properties” (propylene glycol), the “Solubility in propylene glycol” value amounted to 10%. For the same compound, the Solubility in water entry in the data set “Solubility properties” (water, in words) is “insoluble”.
`C=C(CC(=O)c1ccc(-c2ccccc2Cl)cc1)C(=O)OC` [F 1440, 2-methylene 4-oxo 4-(4'-o-chlorophenylphenyl) methyl butyrate]: the “% var. / action (variation of paw volume increase vs controls)” value was -22% in the data set with carrageenin edema (3 hrs), -15% with carrageenin edema (4 hrs) and -9% with carrageenin edema (6 hrs). Moreover, the change in vivo at 75 mg/kg is 47% in the data set on carrageenin edema (setting [3]), 50.5% with carrageenin edema (setting [4]), 51% in the data set with carrageenin edema (setting [5]) and -15% in the data set on carrageenin edema (setting [6]). In data set [2], this compound displayed an LD50 at 48 h above 1000 mg/kg. For the same compound, the “Solubility in N-methyl pyrrolidone” value in the data set “Solubility properties” worked out at 60%. For the same compound, the “Solubility in NN-dimethyl acetamide” value in the data set “Solubility properties” is 60%. For the same compound, the Solubility in water entry in “Solubility properties” (water, in words) is on record as “insoluble”.
For `C=C(CC(=O)c1ccc(-c2ccc(Cl)cc2)cc1)C(=O)O` [F 1449, 2-methylene 4-oxo 4-(4' p-chlorophenylphenyl) butyric acid], the “% var. / action (variation of paw volume increase vs controls)” value is recorded as -29% with carrageenin edema (3 hrs), -24% in the data set on carrageenin edema (4 hrs) and -20% with carrageenin edema (6 hrs). Also, the change in vivo at 75 mg/kg in the data set with carrageenin edema (setting [3]) was 42%; with carrageenin edema (setting [4]), 45%; with carrageenin edema (setting [5]), 44.5%; in the data set with carrageenin edema (setting [6]), -24%. For the same compound, the “% Decrease (of writhings)” value in data set [1] (200 mg/kg oral) was 17%. Further, the “Mean No. of Writhings” value in data set [1] (200 mg/kg oral) is given as 27,4. In the data set “Solubility properties”, the “Solubility in N-methyl pyrrolidone” value worked out at 30%. In the data set “Solubility properties” (absolute alcohol), the “Solubility in absolute alcohol” value turned out to be 1%. Moreover, the “Solubility in NN-dimethyl acetamide” value in the data set “Solubility properties” was 30%. In addition, the Solubility in water result in “Solubility properties” (water, in words) is “insoluble”.

As a reminder, the LD50 is the dose at which mortality reaches 50%. Lower therefore signals a more toxic substance.
